Assay results: patent US20240287138A1, “CYCLIC PEPTIDES FOR INHIBITING TNF RECEPTOR 1 ACTIVITY” (Merck Sharp & Dohme LLC, priority 2023, published 2024)
Like-named read-outs stand apart in the source and are kept apart here. Numbered stars: 1 amine (or outer) side, 2 acyl side, 3 side chain; on linkers, the order of the positions; unused ones are H or OH. Bridge positions count the residues as written; N and C are the ends. Square brackets hold non-standard residues; d marks the D form. Peptide text beside a SMILES is read from it. * marks the point of attachment. Trp(βS-Me,7-OMe) = COc1cccc2c([C@H](C)[C@H](N)C(=O)O)c[nH]c12; Trp(7-CN) = N#Cc1cccc2c(C[C@H](N)C(=O)O)c[nH]c12; Trp(7-Cl) = N[C@@H](Cc1c[nH]c2c(Cl)cccc12)C(=O)O; Phe(4-CONH2) = NC(=O)c1ccc(C[C@H](N)C(=O)O)cc1; Phe(4-COOH) = N[C@@H](Cc1ccc(C(=O)O)cc1)C(=O)O; 4Pal(3S-Me) = C[C@@H](c1ccncc1)[C@H](N)C(=O)O; Trp(7-aza) = N[C@@H](Cc1c[nH]c2ncccc12)C(=O)O; dPro(trans-4-F) = O=C(O)[C@H]1C[C@H](F)CN1; Pip(5R-OH) = O=C(O)[C@@H]1CC[C@@H](O)CN1; αMeW = C[C@](N)(Cc1c[nH]c2ccccc12)C(=O)O; X1 = O=C([C@@H]1CC[C@H](N[*:1])C1)[*:2]; Pip(4-aza) = O=C(O)[C@@H]1CNCCN1; 4Pal = N[C@@H](Cc1ccncc1)C(=O)O; NMeE = CN[C@@H](CCC(=O)O)C(=O)O; dHyp = O=C(O)[C@H]1C[C@H](O)CN1; Aad = N[C@@H](CCCC(=O)O)C(=O)O; Ahp(2) = CCCCC[C@H](N)C(=O)O; αMeS = C[C@](N)(CO)C(=O)O; Carboxymethyl = O=C(O)C*; Nle = CCCC[C@H](N)C(=O)O; Dab = NCC[C@H](N)C(=O)O; Sar = CNCC(=O)O

Columns and labels:
[1] = molecular target: T1, human soluble TNFR1 (sTNFR1) (Homo sapiens, UniProt P19438); experiment: Human sTNFR1-peptide displacement assay (LanthaScreen Eu TR-FRET binding assay)
T1 construct: made in house; host or cells: Sf21 (baculovirus)
T1 sequence (P19438 with tags, fused parts or gaps): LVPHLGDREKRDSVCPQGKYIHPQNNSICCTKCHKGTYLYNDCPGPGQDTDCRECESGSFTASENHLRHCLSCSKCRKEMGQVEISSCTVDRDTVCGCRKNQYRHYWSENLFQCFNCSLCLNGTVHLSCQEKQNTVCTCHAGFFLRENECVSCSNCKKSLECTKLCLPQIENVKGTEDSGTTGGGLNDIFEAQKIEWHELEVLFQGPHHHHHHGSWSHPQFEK
Method in brief: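 Readout is the 665/615 nm TR-FRET ratio (Eu anti-His donor, streptavidin-Alexa647 acceptor), normalized to DMSO and saturating displacer, fit by Morrison-based five-parameter logistic for Kd^app. His-tagged sTNFR1 (1-211) prebound to 100 nM biotinylated peptide SEQ ID NO.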

[2] = molecular target: T2, TNFα-induced NF-κB signal transduction pathway (TNFR1 signaling) in THP-1 cells (Homo sapiens, UniProt P19438); experiment: THP-1 Lucia NF-κB reporter cell assay, inhibition of TNFα-induced NF-κB signaling; assay type: cell-based; details: THP-1 NF-κB Lucia reporter cells, 10 ng/mL TNFα, 16-18 h, secreted luciferase, read-out: THP-1 IC50
T2 sequence (P19438 30-455): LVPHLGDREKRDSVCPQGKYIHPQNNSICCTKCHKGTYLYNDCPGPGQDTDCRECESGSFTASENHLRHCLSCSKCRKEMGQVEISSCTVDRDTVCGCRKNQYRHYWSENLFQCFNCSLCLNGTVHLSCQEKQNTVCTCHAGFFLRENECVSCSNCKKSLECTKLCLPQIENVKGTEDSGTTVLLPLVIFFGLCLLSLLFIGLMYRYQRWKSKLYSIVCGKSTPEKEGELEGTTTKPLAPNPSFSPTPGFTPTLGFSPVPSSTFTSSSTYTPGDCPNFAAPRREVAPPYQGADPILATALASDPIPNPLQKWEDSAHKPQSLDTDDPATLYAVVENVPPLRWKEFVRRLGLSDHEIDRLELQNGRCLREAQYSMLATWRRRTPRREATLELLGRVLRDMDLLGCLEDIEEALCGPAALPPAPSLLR
Method in brief: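 Inhibition of TNFR1-driven NF-κB activation was measured as luminescence of secreted reporter luciferase following overnight (16-18 h) stimulation with 10 ng/mL TNFα.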

Molecule `CCCC[C@@H]1NC(=O)CSC[C@@H](C(N)=O)NC(=O)[C@](C)(Cc2c[nH]c3ccccc23)NC(=O)CN(C)C(=O)[C@H](Cc2ccc(O)cc2)NC(=O)[C@H](Cc2ccc(C(=O)O)cc2)NC(=O)[C@](C)(CO)NC(=O)[C@H](Cc2c[nH]c3c(Cl)cccc23)NC(=O)[C@H](Cc2ccncc2)NC(=O)[C@H](CC(N)=O)NC(=O)[C@H](CCC(=O)O)N(C)C(=O)[C@H](Cc2c[nH]c3ncccc23)NC(=O)[C@H](CCN)NC(=O)[C@H](Cc2ccncc2)NC1=O` [SEQ ID NO. 277] ({CH2CO}-[Nle][4Pal][Dab][Trp(7-aza)][NMeE]N[4Pal][Trp(7-Cl)][αMeS][Phe(4-COOH)]Y[Sar][αMeW]C-NH2; thioether N-14) has an IC50 [1] of 1.12 nM and an IC50 [2] of 3 nM.

Molecule `CCCC[C@@H]1NC(=O)CSC[C@@H](C(N)=O)NC(=O)[C@H]([C@@H](C)c2c[nH]c3c(OC)cccc23)NC(=O)CN(C)C(=O)[C@H](Cc2ccc(O)cc2)NC(=O)[C@H](Cc2ccc(C(=O)O)cc2)NC(=O)[C@](C)(CO)NC(=O)[C@H](Cc2c[nH]c3c(Cl)cccc23)NC(=O)[C@H](Cc2ccncc2)NC(=O)[C@H](CC(N)=O)NC(=O)[C@H]2C[C@H](F)CN2C(=O)[C@H](Cc2c[nH]c3ccccc23)NC(=O)[C@@H]2CNCCN2C(=O)[C@H](Cc2ccncc2)NC1=O` [SEQ ID NO. 279] ({CH2CO}-[Nle][4Pal][Pip(4-aza)]W[dPro(trans-4-F)]N[4Pal][Trp(7-Cl)][αMeS][Phe(4-COOH)]Y[Sar][Trp(βS-Me,7-OMe)]C-NH2; thioether N-14) has a Kd [1] of 0.38 nM and an IC50 [2] of 1.4 nM.

`CCCCC[C@@H]1NC(=O)[C@@H]2CC[C@@H](C2)NC(=O)[C@H]([C@@H](C)c2c[nH]c3c(OC)cccc23)NC(=O)CN(C)C(=O)[C@H](Cc2ccc(C(N)=O)cc2)NC(=O)[C@H](Cc2ccc(C(N)=O)cc2)NC(=O)[C@](C)(CO)NC(=O)[C@H](Cc2c[nH]c3c(C#N)cccc23)NC(=O)[C@H](Cc2ccc(C(=O)O)cc2)NC(=O)[C@H](CC(N)=O)NC(=O)[C@H]2C[C@H](O)CN2C(=O)[C@H](Cc2c[nH]c3ccccc23)NC(=O)[C@H](CCCC(=O)O)NC(=O)[C@H]([C@@H](C)c2ccncc2)NC1=O` [SEQ ID NO. 282] (cyclo([Aad]W[dHyp]N[Phe(4-COOH)][Trp(7-CN)][αMeS][Phe(4-CONH2)][Phe(4-CONH2)][Sar][Trp(βS-Me,7-OMe)][X1][Ahp(2)][4Pal(3S-Me)])) gave a Kd [1] of 0.13 nM and an IC50 [2] of 0.9 nM.

For `CCCC[C@@H]1NC(=O)[C@@H]2CC[C@@H](C2)NC(=O)[C@H]([C@@H](C)c2c[nH]c3c(OC)cccc23)NC(=O)CN(C)C(=O)[C@H](Cc2ccc(C(=O)O)cc2)NC(=O)[C@H](Cc2ccc(C(N)=O)cc2)NC(=O)[C@](C)(CO)NC(=O)[C@H](Cc2c[nH]c3c(C#N)cccc23)NC(=O)[C@H](Cc2ccc(C(=O)O)cc2)NC(=O)[C@H](CC(N)=O)NC(=O)[C@H]2C[C@H](OCC(=O)O)CN2C(=O)[C@H](Cc2c[nH]c3ncccc23)NC(=O)[C@@H]2CC[C@@H](O)CN2C(=O)[C@H](Cc2ccncc2)NC1=O` [SEQ ID NO. 284] (cyclo([4Pal][Pip(5R-OH)][Trp(7-aza)][dHyp](Carboxymethyl)N[Phe(4-COOH)][Trp(7-CN)][αMeS][Phe(4-CONH2)][Phe(4-COOH)][Sar][Trp(βS-Me,7-OMe)][X1][Nle])), the Kd [1] was 0.09 nM and the IC50 ([2]; listed as 284) was 0.8 nM.

With `CCCC[C@@H]1NC(=O)[C@@H]2CC[C@@H](C2)NC(=O)[C@H]([C@@H](C)c2c[nH]c3c(OC)cccc23)NC(=O)CN(C)C(=O)[C@H](Cc2ccc(OCC(=O)O)cc2)NC(=O)[C@H](Cc2ccc(C(N)=O)cc2)NC(=O)[C@](C)(CO)NC(=O)[C@H](Cc2c[nH]c3c(C#N)cccc23)NC(=O)[C@H](Cc2ccc(OCC(=O)O)cc2)NC(=O)[C@H](CC(N)=O)NC(=O)[C@H]2C[C@H](O)CN2C(=O)[C@H](Cc2c[nH]c3ccccc23)NC(=O)[C@@H]2CC[C@@H](O)CN2C(=O)[C@H](Cc2ccncc2)NC1=O` [SEQ ID NO. 285] (cyclo([4Pal][Pip(5R-OH)]W[dHyp]NY(Carboxymethyl)[Trp(7-CN)][αMeS][Phe(4-CONH2)]Y(Carboxymethyl)[Sar][Trp(βS-Me,7-OMe)][X1][Nle])) the Kd [1] was 0.04 nM and the IC50 [2] was 0.6 nM.
